# Measured values reported in patent US20080242663A1, “NOVEL PYRIMIDINE DERIVATIVES 698” (ASTRAZENECA AB, priority 2007, published 2008).
# Target: T1, recombinant EphB4 (Homo sapiens, UniProt P54760)
# T1 construct: amino acids 563-987; Swiss-Prot Acc; No. P54760; purchased ProQinase GmbH 0178-0000-3
# T1 sequence (P54760 563-987): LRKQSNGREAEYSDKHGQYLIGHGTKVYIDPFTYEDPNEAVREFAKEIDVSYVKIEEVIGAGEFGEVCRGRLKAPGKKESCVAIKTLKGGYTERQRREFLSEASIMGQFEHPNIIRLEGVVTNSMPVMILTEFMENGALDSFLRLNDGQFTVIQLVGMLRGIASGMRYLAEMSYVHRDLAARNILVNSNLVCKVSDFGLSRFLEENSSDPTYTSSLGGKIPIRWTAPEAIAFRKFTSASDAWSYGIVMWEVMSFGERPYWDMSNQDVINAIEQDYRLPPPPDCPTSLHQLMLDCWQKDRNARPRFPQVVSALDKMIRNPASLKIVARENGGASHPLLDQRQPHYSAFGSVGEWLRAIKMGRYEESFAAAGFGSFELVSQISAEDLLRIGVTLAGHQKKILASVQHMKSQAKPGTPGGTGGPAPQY
# Assay: In vitro EphB4 enzyme assay (Alphascreen)
# Assay type: biochemical
# Procedure: This assay detects inhibitors of EphB4-mediated phosphorylation of a polypeptide substrate using Alphascreen™ luminescence detection technology. Briefly, recombinant EphB4 was incubated with a biotinylated-polypeptide substrate (biotin-poly-GAT) in presence of magnesium-ATP. The reaction was stopped by addition of EDTA, together with streptavidin-coated donor beads which bind the biotin-substrate containing any phosphorylated tyrosine residues. Anti-phosphotyrosine antibodies present on acceptor beads bind to phosphorylated substrate, thus bringing the donor & acceptor beads into close proximity. Subsequent excitation of the donor beads at 680 nm generated singlet oxygen species that interact with a chemiluminescer on the acceptor beads, leading to light emission at 520-620 nm. The signal intensity is directly proportional to the level of substrate phosphorylation and thus inhibition is measured by a decrease in signal.
# Assay plates were then incubated at room temperature for 1 hr. […] The plates were sealed under natural lighting conditions, wrapped in aluminium foil and incubated in the dark for a further 20 hrs.
# The resulting assay signal was determined on the Perkin Elmer EnVision plate reader. The minimum value was subtracted from all values, and the signal plotted against compound concentration to generate IC50 data.
row,SMILES,IC50 [nM]
1,"Cc1ccc(CO)cc1N(C)c1ccnc(Nc2cc(N3CCOCC3)cc(N3CCOC[C@@H]3C)c2)n1 [Example 7.17, (S)-(4-methyl-3-(methyl(2-(3-(3-methylmorpholino)-5-morpholinophenyl-amino)pyrimidin-4-yl)amino)phenyl)methanol]",3.13
2,"CCN(c1ccnc(Nc2cc(N3CCOCC3)cc(S(C)(=O)=O)c2)n1)c1cc(CO)ccc1C [Example 8.1, [3-[ethyl-[2-[(3-methylsulfonyl-5-morpholin-4-yl-phenyl)amino]pyrimidin-4-yl]amino]-4-methyl-phenyl]methanol]",414
3,"Cc1ccc(N(C)c2ccnc(Nc3cc(N4CCOCC4)cc(N4CCOCC4)c3)n2)cc1 [Example 10.1, N-(3,5-dimorpholin-4-ylphenyl)-N′-methyl-N′-(4-methylphenyl)pyrimidine-2,4-diamine]",402
4,"CN(c1cccc(F)c1)c1ccnc(Nc2cc(N3CCOCC3)cc(N3CCOCC3)c2)n1 [Example 10.5, N-(3,5-dimorpholin-4-ylphenyl)-N′-(3-fluorophenyl)-N′-methyl-pyrimidine-2,4-diamine]",340
5,"Cc1cc(C)cc(N(C)c2ccnc(Nc3cc(N4CCOCC4)cc(N4CCOCC4)c3)n2)c1 [Example 10.8, N′-(3,5-dimethylphenyl)-N-(3,5-dimorpholin-4-ylphenyl)-N′-methyl-pyrimidine-2,4-diamine]",1100
6,"CN(c1cccc(C#N)c1)c1ccnc(Nc2cc(N3CCOCC3)cc(N3CCOCC3)c2)n1 [Example 10.10, 3-[[2-[(3,5-dimorpholin-4-ylphenyl)amino]pyrimidin-4-yl]-methyl-amino]benzonitrile]",527
7,"CN(c1ccc(Cl)c(Cl)c1)c1ccnc(Nc2cc(N3CCOCC3)cc(N3CCOCC3)c2)n1 [Example 10.11, N′-(3,4-dichlorophenyl)-N-(3,5-dimorpholin-4-ylphenyl)-N′-methyl-pyrimidine-2,4-diamine]",660
8,"COc1ccccc1N(C)c1ccnc(Nc2cc(N3CCOCC3)cc(N3CCOCC3)c2)n1 [Example 10.12, N-(3,5-dimorpholin-4-ylphenyl)-N′-(2-methoxyphenyl)-N′-methyl-pyrimidine-2,4-diamine]",107
9,"CN(c1ccnc(Nc2cc(N3CCOCC3)cc(N3CCOCC3)c2)n1)c1cc(CO)ccc1Cl [Example 10.19, [4-chloro-3-[[2-[(3,5-dimorpholin-4-ylphenyl)amino]pyrimidin-4-yl]-methyl-amino]phenyl]methanol]",150
10,"CN(c1cc(Cl)cc(CO)c1)c1ccnc(Nc2cc(N3CCOCC3)cc(N3CCOCC3)c2)n1 [Example 10.20, [3-chloro-5-[[2-[(3,5-dimorpholin-4-ylphenyl)amino]pyrimidin-4-yl]-methyl-amino]phenyl]methanol]",338
11,"COc1ccc(C)c(N(C)c2ccnc(Nc3cc(N4CCOCC4)cc(S(C)(=O)=O)c3)n2)c1 [Example 12.2, N′-(5-methoxy-2-methyl-phenyl)-N′-methyl-N-(3-methylsulfonyl-5-morpholin-4-yl-phenyl)pyrimidine-2,4-diamine]",29.4
12,"COc1ccc(C)c(N(C)c2ccnc(Nc3cc(C(=O)N(C)C)cc(N4CCOCC4)c3)n2)c1 [Example 12.3, 3-[[4-[(5-methoxy-2-methyl-phenyl)-methyl-amino]pyrimidin-2-yl]amino]-N,N-dimethyl-5-morpholin-4-yl-benzamide]",455

# Further compounds by falling IC50, results first:
row,IC50 [nM],SMILES
1,9780,"CN(c1ccc(C#N)cc1)c1ccnc(Nc2cc(N3CCOCC3)cc(N3CCOCC3)c2)n1 [Example 10.17, 4-[[2-[(3,5-dimorpholin-4-ylphenyl)amino]pyrim-idin-4-yl]-methyl-amino]benzonitrile]"
2,1070,"Cc1ccc(CO)cc1N(CC1CC1)c1ccnc(Nc2cc(N3CCOCC3)cc(S(C)(=O)=O)c2)n1 [Example 8.4, [3-[cyclopropyl-methyl-[2-[(3-methylsulfonyl-5-morpholin-4-yl-phenyl)amino]pyrimidin-4-yl]amino]-4-methyl-phenyl]methanol]"
3,917,"Cc1ccc(CO)cc1N(CC(C)C)c1ccnc(Nc2cc(N3CCOCC3)cc(S(C)(=O)=O)c2)n1 [Example 8.3, [4-methyl-3-[2-methylpropyl-[2-[(3-methylsulfonyl-5-morpholin-4-yl-phenyl)amino]pyrimidin-4-yl]amino]phenyl]methanol]"
4,811,"Cc1cc(C)c(N(C)c2ccnc(Nc3cc(N4CCOCC4)cc(N4CCOCC4)c3)n2)c(C)c1 [Example 10.13, N-(3,5-dimorpholin-4-ylphenyl)-N′-methyl-N′-(2,4,6-trimethylphenyl)pyrimidine-2,4-diamine]"
5,638,"CSc1cccc(N(C)c2ccnc(Nc3cc(N4CCOCC4)cc(N4CCOCC4)c3)n2)c1 [Example 10.7, N-(3,5-dimorpholin-4-ylphenyl)-N′-methyl-N′-(3-methylsulfanylphenyl)pyrimidine-2,4-diamine]"
6,381,"CN(c1ccnc(Nc2cc(N3CCOCC3)cc(N3CCOCC3)c2)n1)c1ccc(F)cc1F [Example 10.14, N′-(2,4-difluorophenyl)-N-(3,5-dimorpholin-4-ylphenyl)-N′-methyl-pyrimidine-2,4-diamine]"
7,237,"CN(c1ccnc(Nc2cc(N3CCOCC3)cc(N3CCOCC3)c2)n1)c1ccccc1F [Example 10.16, N-(3,5-dimorpholin-4-ylphenyl)-N′-(2-fluorophenyl)-N′-methyl-pyrimidine-2,4-diamine]"
8,171,"COc1ccc(C)c(N(C)c2ccnc(Nc3cc(N4CCOCC4)cc(N4CCN(C)CC4)c3)n2)c1 [Example 12.4, N′-(5-methoxy-2-methyl-phenyl)-N′-methyl-N-[3-(4-methylpiperazin-1-yl)-5-morpholin-4-yl-phenyl]pyrimidine-2,4-diamine]"
9,22.2,"Cc1ccc(CO)cc1N(C)c1ccnc(Nc2cc(N3CCOCC3)cc(N3CCOCC3=O)c2)n1 [Example 7.16, 4-[3-[[4-[[5-(hydroxymethyl)-2-methyl-phenyl]-methyl-amino]pyrimidin-2-yl]amino]-5-morpholin-4-yl-phenyl]morpholin-3-one]"
10,9.73,"Cc1ccc(CO)cc1N(C)c1ccnc(Nc2cc(N3CCOCC3)cc(N3CCC(=O)CC3)c2)n1 [Example 7.19, 1-(3-(4-((5-(hydroxymethyl)-2-methylphenyl)(methyl)amino)pyrimidin-2-ylamino)-5-morpholinophenyl)piperidin-4-one]"
11,6.45,"Cc1ccc(CO)cc1N(C)c1ccnc(Nc2cc(N3CCOCC3)cc(N3CCOC[C@H]3C)c2)n1 [Example 7.18, (R)-(4-methyl-3-(methyl(2-(3-(3-methylmorpholino)-5-morpholinophenyl-amino)pyrimidin-4-yl)amino)phenyl)methanol]"
12,3.4,"COc1ccc(C)c(N(C)c2ccnc(Nc3cc(N4CCNCC4)cc(N4CCOCC4)c3)n2)c1 [Example 12.6, N4-(5-methoxy-2-methylphenyl)-N4-methyl-N2-(3-morpholino-5-(piperazin-1-yl)phenyl)pyrimidine-2,4-diamine]"
13,2.95,"COc1ccc(C)c(N(C)c2ccnc(Nc3cc(N4CCOCC4)cc(N4CCC(O)CC4)c3)n2)c1 [Example 12.5, 1-(3-(4-((5-methoxy-2-methylphenyl)(methyl)amino)pyrim-idin-2-ylamino)-5-morpholinophenyl)piperidin-4-ol]"
